{
  "source": "patent US20040127512A1",
  "about": "“Method of treating symptoms of non-constipated irritable bowel syndrome” (Bradley Pharmaceuticals, Inc., priority 2002, published 2004)",
  "key": {"[1]": {"test": "clinical study of oral methscopolamine bromide as antispasmodic medication in colonoscopy", "assay_type": "in vivo", "conditions": "10 mg oral one hour before colonoscopy; 25 patients; control subjects 30%", "procedure": "A clinical study was undertaken with oral methscopolamine bromide as an antispasmodic medication in colonoscopy. The study comprised of 40 non-randomized patients. Thirty patients were given oral methscopolamine bromide prior to the procedure. […] The dose was increased to 10 mg for the following 25 patients. For the purpose of the study, in terms of spasm control a “success” was defined as a colonoscopy where there was no significant spasm on insertion and no intravenous Buscopan® was required. A failure was defined as the requirement of intravenous Buscopan® (antispasmodic). […] The study had both male and female patients."}, "[2]": {"conditions": "following oral administration; cited from earlier work"}, "[3]": {"conditions": "in vivo; cited from earlier work"}},
  "data": [
    {"smiles": "C[N+]1(C)[C@@H]2C[C@@H](OC(=O)[C@H](CO)c3ccccc3)C[C@H]1[C@@H]1O[C@@H]12", "note": "[methscopolamine bromide]", "values": [
      {"measurement": "patients with minimal or no spasm", "setting": "[1]", "value": 64, "unit": "%"},
      {"measurement": "time until drug effects appear", "setting": "[2]", "value": "about one"},
      {"measurement": "ability to cross the blood-brain-barrier", "setting": "[3]", "value": "limited ability to cross the blood-brain-barrier"},
      {"measurement": "route of excretion", "setting": "[3]", "value": "excreted primarily in the urine and bile, or as unabsorbed drug in feces"}
    ]}
  ]
}
